One test deals with BT-474. The test is described as follows: Cell growth inhibition assay (Cell Titer Glo). The class given is cell-based, Human. Particulars: BT-474, Breast, HER2+, PIK3CA K111N, 3 days, read-out: Single Agent (IC50). The method, then: (§1) All cells were cultured without lapatinib for a minimum of 72 hours prior to cell plating. Cells were assayed in a 96-well tissue culture plate (NUNC 136102) of RPMI medium containing 10
(§2) % FBS for all cells at 2,000 cells per well except KPL4, which were plated in DMEM containing 5% FBS at 500 cells per well. […] Cells were incubated in the presence of compounds for 3 days. ATP levels were determined by adding Cell Titer Glo® (Promega) according to the manufacturer's protocol. Briefly, Cell Titer Glo® was added each plate, incubated for 20 minutes then luminescent signal was read on the SpectraMax L plate reader with a 0.5 sec integration time.
(§3) Inhibition of cell growth was estimated after treatment with compound or combination of compounds for three days and comparing the signal to cells treated with vehicle (DMSO). Cell growth was calculated relative to vehicle (DMSO) treated control wells. Concentration of compound that inhibits 50% of control cell growth (IC50) was interpolated using nonlinear regression with the equation, y=(A+(B−A)/(1+(C/x)̂D)))), where A is the minimum response (ymin), B is the maximum response (ymax), C is the inflection point of the curve (EC50) and D is the Hill coefficient. […]

The next test relates to HCC1937. The test is described as follows: Cell growth inhibition assay (Cell Titer Glo). The class given is cell-based, Human. Particulars: HCC1937, Breast, HER−, PIK3CA WT; 3 days; read-out: Single Agent (IC50). The protocol: as §1, §2, §3
A further test relates to HCC202. The test is described as follows: Cell growth inhibition assay (Cell Titer Glo). Format: cell-based, Human. Particulars: HCC202, Breast, HER2+, PIK3CA E545K, 3 days; for IC50: read-out: Single Agent (IC50). The method, then: as §1, §2, §3
Background: In ATP-based viability assays light output follows the ATP content of the culture.

In the next test the test system is MDA-MB-175-VII. The test is described as follows: Cell growth inhibition assay (Cell Titer Glo). The class given is cell-based, Human. To be noted: Breast, HER−, PIK3CA WT, 3 days, read-out: Single Agent (IC50). The method, then: as §1, §2, §3
A further test has as its system MDA-MB-361. The test is described as follows: Cell growth inhibition assay (Cell Titer Glo). The class given is cell-based, Human. To be noted: MDA-MB-361 (resistant line), Breast, HER2+, PIK3CA E545K, 3 days; for IC50: Homo sapiens, 72 h, read-out: Single Agent (IC50). The protocol:
as §1, §2, §3

The next test has as its system MDA-MB-453. As to the kind of experiment: Cell growth inhibition assay (Cell Titer Glo). The class given is cell-based, Human. Particulars: MDA-MB-453, Breast, HER2+, PIK3CA H1047R, 3 days; for IC50: Homo sapiens, 72 h, read-out: Single Agent (IC50). The protocol: as §1, §2, §3
Another test deals with SK-BR-3. The test is described as follows: Cell growth inhibition assay (Cell Titer Glo). Format: cell-based, Human. Particulars: SK-BR-3, Breast, HER2+, PIK3CA WT, 3 days, read-out: Single Agent (IC50). The protocol:
as §1, §2, §3

The test system of the next test is UACC893. The test is described as follows: Cell growth inhibition assay (Cell Titer Glo). To be noted: UACC893, Breast, HER2+, PIK3CA H1047R, 3 days, read-out: Single Agent (IC50). The class given is cell-based, Human. The method, then:
as §1, §2, §3

The next test deals with BT-474-J4. The test is described as follows: Cell growth inhibition assay (Cell Titer Glo). To be noted: Homo sapiens, 72 h, BT-474-J4 (resistant line), Breast, HER2+, PIK3CA K111N; 3 days; read-out: Single Agent (IC50). Format: cell-based. The protocol:
(§4) JIMT-1 is a line derived from a patient clinically resistant to trastuzumab (Herceptin®). SK-BR-3-W13 is a single cell clone isolated by a cloning cylinder after a single treatment of SK-BR-3 cells with 0.5 μM lapatinib. BT-474-J4 is a single cell clone derived from a culture of BT-474 cells that were selected to grow in lapatinib to a concentration of 3 μM.
as §1, §2, §3

In another test the test system is SK-BR-3-W13. As to the kind of experiment: Cell growth inhibition assay (Cell Titer Glo). The class given is cell-based. To be noted: Homo sapiens, 72 h; SK-BR-3-W13 (resistant line), Breast, HER2+, PIK3CA WT; 3 days; read-out: Single Agent (IC50). The method, then:
as §4, §1, §2, §3

For another test, the system named is JIMT-1. The test is described as follows: Cell growth inhibition assay (Cell Titer Glo). Format: cell-based, Human. To be noted: JIMT-1 (resistant line), Breast, HER2+, PIK3CA WT, 3 days, read-out: Single Agent (IC50). The method, then:
as §4, §1, §2, §3

Test [1] concerns caspase 3/7 activity in BT474 cells. As to the kind of experiment: Cell apoptosis assay, caspase-3/7 activation (Caspase Glo 3/7). The class given is cell-based, Human. To be noted: 24 h post treatment. The method, then: as §4
(§5) For investigation of the induction of apoptosis, cells were plated at 5,000 cells per well in a 96-well tissue culture plate and allowed to attach for approximately 24 hours. Cells were then treated with compounds as described above. 24 hours after compound treatment, the levels of active caspase 3 and caspase 7 were determined with the Caspase Glo™ 3/7 (Promega, cat G8093) according to the instructions provided by the manufacturer. 48 hours after treatment with compound, levels of apoptosis were estimated using the Roche Cell Death ELISA (Cat. No. 11 774 425 001) following the instructions provided by the manufacturer.

Test [2] concerns caspase 3/7 activity in HCC1419 cells. The description is as above. Particulars: 24 h post treatment. The class given is cell-based, Human. The method, then:
as §4, §5

Test [3] concerns caspase 3/7 activity in UACC893 cells. The description is as above. The class given is cell-based, Human. To be noted: 24 h post treatment. The protocol:
as §4, §5

The subject of another test is CHL-1. As to the kind of experiment: Cell growth inhibition assay (Cell Titer Glo). The class given is cell-based, Human. Particulars: CHL-1, Melanoma, HER−, PIK3CA WT, 3 days, read-out: Single Agent (IC50). The method, then:
as §1, §2, §3

Another test deals with KPL4. The test is described as follows: Cell growth inhibition assay (Cell Titer Glo). Format: cell-based, Human. Particulars: KPL4, Breast, HER2+, PIK3CA H1047R, 3 days, read-out: Single Agent (IC50). The protocol: as §1, §2, §3
The next test has as its system ZR-75-1. As to the kind of experiment: Cell growth inhibition assay (Cell Titer Glo). Particulars: ZR-75-1, Breast, HER−, PIK3CA WT, 3 days, read-out: Single Agent (IC50). Format: cell-based, Human. The method, then: as §1, §2, §3

Like-named read-outs stand apart in the source and are kept apart here.

In general, IC50 refers to the point on the concentration scale where inhibition reaches its midpoint. Turning to `CS(=O)(=O)CCNCc1ccc(-c2ccc3ncnc(Nc4ccc(OCc5cccc(F)c5)c(Cl)c4)c3c2)o1` [Compound A, N-{3-Chloro-4-[(3-fluorobenzyl)oxy]phenyl}-6-[5-({[2-(methanesulphonyl)ethyl]amino}methyl)-2-furyl]-4-quinazolinamine ditosylate monohydrate], the half-maximal inhibitory concentration (IC50) in the test on BT-474 (ditosylate monohydrate) is 241 nM; with BT-474 (Homo sapiens, BT-474, 72 h) it was less than 200 nM; with HCC1937 it was greater than 1000 nM; in the test with HCC202 (Homo sapiens, HCC202, 72 h), 4630 nM; with MDA-MB-175-VII (ditosylate monohydrate), 106 nM; with MDA-MB-175-VII (Homo sapiens, 72 h), less than 200 nM. The 50% inhibitory concentration (IC50) with MDA-MB-361 was greater than 10000 nM; with MDA-MB-453, 2470 nM; in the test with SK-BR-3 (Homo sapiens, SK-BR-3, 72 h), less than 200 nM; in the test with SK-BR-3 (ditosylate monohydrate), 312 nM; in the test with UACC893 (Homo sapiens, UACC-893, 72 h), less than 1000 nM; in the test with UACC893 (ditosylate monohydrate) it was 1070 nM. Also, the IC50 was 3540 nM in the test on BT-474-J4; 7110 nM in the test with SK-BR-3-W13; 9620 nM with JIMT-1 (Homo sapiens, JIMT-1, 72 h). For the same compound, the “Single Agent (IC50, μM)” value in the test on HCC202, in the test with MDA-MB-361 and in the test on MDA-MB-453 was “less sensitive” in each case. In addition, the entries for the “caspase 3/7 activity” value in test [1], in [2] and in [3] were “increased caspase 3/7 activity”, “slight increase in caspase 3/7 activity” and “increased caspase 3/7 activity”, respectively.
`COc1ncc(-c2ccc3nccc(-c4ccnnc4)c3c2)cc1NS(=O)(=O)c1ccc(F)cc1F` [Compound B, 2,4-difluoro-N-{2-(methyloxy)-5-[4-(4-pyridazinyl)-6-quinolinyl]-3-pyridinyl}benzenesulfonamide]: the 50% inhibitory concentration (IC50) was 28 nM in the test on BT-474; less than 50 nM with BT-474 (Homo sapiens, BT-474, 72 h); 38 nM in the test with CHL-1; less than 40 nM in the test on CHL-1 (Homo sapiens, CHL-1, 72 h); 206 nM in the test on HCC202; 200 nM with HCC202 (Homo sapiens, HCC202, 72 h). Moreover, the IC50 is less than 5 nM in the test with KPL4 (Homo sapiens, KPL4, 72 h); 3 nM with KPL4; 9 nM in the test on MDA-MB-361; 15 nM in the test with MDA-MB-453; less than 5 nM in the test with UACC893 (Homo sapiens, UACC-893, 72 h); 5 nM with UACC893. For the same compound, the concentration for half-maximal inhibition (IC50) in the test on ZR-75-1 (Homo sapiens, ZR-75-1, 72 h) is 10 to 1300 nM; in the test with ZR-75-1 it was 12 nM; in the test with SK-BR-3-W13, 167 nM; in the test with JIMT-1 (Homo sapiens, JIMT-1, 72 h), less than 30 nM; with JIMT-1 it was 28 nM. Besides, the results for the “caspase 3/7 activity” value in [1], in test [2] and in test [3] were “increased caspase 3/7 activity”, “slight increase in caspase 3/7 activity” and “increased caspase 3/7 activity”, respectively.

For the origin of these results see patent US20130137701A1, “COMBINATION” (priority 2010, published 2013).
